Data from patent US9630955B2, “Chemical compound useful as intermediate for preparing a catechol-O-methyltransferase inhibitor” (BIAL—Portela & Cª., S.A, priority 2011, dated 2017).
Like-named read-outs stand apart in the source and are kept apart here.

Legend:
liver COMT = target: T1, liver COMT (Rattus norvegicus, UniProt P22734); test: inhibition of liver COMT post oral administration to rats; type: in vivo; conditions: for ED50: rat, po
T1 construct: from tissue; host or cells: rat liver
T1 sequence (P22734 1-264): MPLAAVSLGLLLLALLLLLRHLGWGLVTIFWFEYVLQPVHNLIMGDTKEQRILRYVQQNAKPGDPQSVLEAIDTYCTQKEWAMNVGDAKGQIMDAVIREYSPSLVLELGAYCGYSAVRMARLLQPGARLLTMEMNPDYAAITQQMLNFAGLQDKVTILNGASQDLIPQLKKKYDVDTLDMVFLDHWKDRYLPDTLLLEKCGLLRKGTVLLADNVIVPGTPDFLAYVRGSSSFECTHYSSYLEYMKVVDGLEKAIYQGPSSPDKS

COMT in the brain = target: T2, COMT in the brain (Rattus norvegicus, UniProt P22734); test: inhibition of COMT in the brain following oral administration to the rat; type: in vivo; conditions: over a period of 8 hours post administration
T2 construct: from tissue; host or cells: rat brain
T2 sequence (P22734 1-264): T1 sequence (P22734 1-264)

human recombinant S-COMT = target: T3, human recombinant S-COMT (Homo sapiens, UniProt P21964)
T3 sequence (P21964 1-221 isoform P21964-2): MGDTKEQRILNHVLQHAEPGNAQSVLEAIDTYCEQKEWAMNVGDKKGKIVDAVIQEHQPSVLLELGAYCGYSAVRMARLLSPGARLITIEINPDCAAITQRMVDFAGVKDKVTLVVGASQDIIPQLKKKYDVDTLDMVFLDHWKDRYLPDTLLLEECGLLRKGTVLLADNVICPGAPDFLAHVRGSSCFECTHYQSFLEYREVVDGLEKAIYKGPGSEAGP

**Q.** Which “enzyme activity recovery (rat liver COMT)” value (liver COMT; oral administration, after 9 hours) does the source give for `Cc1ccc(C(=O)c2cc(O)c(O)c([N+](=O)[O-])c2)cc1` [tolcapone] here?
**A.** The value was “about 84%”.

**Q.** And the ED50 (liver COMT; read-out: ED50 inhibiting liver COMT, rats, oral administration, at 3 hours post administration)?
**A.** The ED50 was 1.28 mg/kg.

**Q.** What about the ED50 (liver COMT; read-out: ED50 inhibiting liver COMT, rats, oral administration, at 6 hours post administration) of the same compound?
**A.** The ED50 was 2.08 mg/kg.

**Q.** What about the “enzyme activity inhibited (COMT in the brain)” value (COMT in the brain) of the same compound?
**A.** The value was “about 50%”.

**Q.** And the “inhibition of human recombinant S-COMT (in words)” value (human recombinant S-COMT)?
**A.** The value was “inhibit”.
